Results as given in ChEMBL document CHEMBL3603819, “Targeting zoonotic viruses: Structure-based inhibition of the 3C-like protease from bat coronavirus HKU4--The likely reservoir host to the human coronavirus that causes Middle East Respiratory Syndrome (MERS)” (Bioorg Med Chem, 2015).

Test system: Tylonycteris bat coronavirus HKU4
Settings: at 100 µM

Compound | inhibition [%]
CC(C)(C)NC(=O)C(c1cccnc1)N(C(=O)c1ccco1)c1ccc(-c2c(F)cccc2F)cc1 (stereo not drawn) | 23
Cc1noc(C)c1-c1ccc(N(C(=O)c2ccco2)C(C(=O)NC(C)(C)C)c2cccnc2)cc1 (stereo not drawn) | 28
COc1ncccc1-c1ccc(N(Cc2ccsc2)C(=O)Cn2nnc3ccccc32)cc1 | 90
CC(C)(C)NC(=O)C(c1cccnc1)N(C(=O)c1ccc(O)cc1)c1ccc(C(C)(C)C)cc1 (stereo not drawn) | 11
O=C(Cn1nnc2ccccc21)N(Cc1ccsc1)c1ccc(NCc2ccccc2)cc1 | 64
CC(C)(C)NC(=O)C(c1cccnc1)N(C(=O)Cc1cccc2ccccc12)c1ccc(F)cc1 (stereo not drawn) | 22
CC(C)(C)NC(=O)C(c1cccnc1)N(C(=O)c1ccco1)c1ccc(Cc2ccccc2)cc1 (stereo not drawn) | 8
CC(C)(C)NC(=O)C(c1ccsc1)N(C(=O)c1ccc(C(F)(F)F)cn1)c1ccc(F)cc1 (stereo not drawn) | 19
CCOc1ccc(N(C(=O)c2ccco2)C(C(=O)NC(C)(C)C)c2cccnc2)cc1 (stereo not drawn) | 12
Cc1nccn1CC(=O)N(c1ccc(N)cc1)C(C(=O)NC(C)(C)C)c1ccsc1 (stereo not drawn) | 17
O=C(Nc1ccc(N(Cc2ccsc2)C(=O)Cn2nnc3ccccc32)cc1)c1ccccc1 | 90
CC(C)COC(=O)Nc1ccc(N(Cc2ccsc2)C(=O)Cn2nnc3ccccc32)cc1 | 75
CC(C)(C)NC(=O)C(c1cccnc1)N(C(=O)c1ccc[nH]1)c1ccc(C(C)(C)C)cc1 (stereo not drawn) | 16
CC(C)(C)NC(=O)C(c1cccnc1)N(C(=O)c1ccco1)c1ccc(-c2cncnc2)cc1 (stereo not drawn) | 14
CC(C)(C)NC(=O)C(c1ccsc1)N(C(=O)Cn1nnc2ccccc21)c1ccc(NC(=O)c2ccccc2)cc1 (stereo not drawn) | 79
Cn1cnc(C(=O)N(c2ccc(C(C)(C)C)cc2)C(C(=O)NC(C)(C)C)c2cccnc2)c1 (stereo not drawn) | 60
CC(C)(C)NC(=O)C(c1ccsc1)N(C(=O)c1ccco1)c1ccc(C(C)(C)C)cc1 (stereo not drawn) | 19
CC(C)(C)NC(=O)C(c1cccnc1)N(C(=O)Cc1c[nH]c2ccccc12)c1ccc(C(C)(C)C)cc1 (stereo not drawn) | 79
CC(C)c1ccc(N(C(=O)c2cccc3c2CCCC3)C(C(=O)NC(C)(C)C)c2ccsc2)cc1 (stereo not drawn) | 20
CC(C)(C)NC(=O)C(c1ccsc1)N(C(=O)Cn1nnc2ccccc21)c1ccc(NC(=O)C2CC2)cc1 (stereo not drawn) | 85
CC(C)(C)NC(=O)C(c1cccnc1)N(C(=O)CO)c1ccc(C(C)(C)C)cc1 (stereo not drawn) | 29

Compound | inhibition [%]
CC(C)(C)NC(=O)C(c1cccnc1)N(C(=O)c1ccco1)c1ccc(/C=C/c2ccccc2)cc1 (stereo not drawn) | 21
CC(C)c1ccc(N(C(=O)c2n[nH]c3ccccc23)C(C(=O)NC(C)(C)C)c2ccsc2)cc1 (stereo not drawn) | 11
CC(C)(C)NC(=O)C(c1cccnc1)N(C(=O)c1ccncc1)c1ccc(C(C)(C)C)cc1 (stereo not drawn) | 13
CCC(=O)Nc1ccc(N(C(=O)Cn2c(C)nc3ccccc32)C(C(=O)NC(C)(C)C)c2ccsc2)cc1 (stereo not drawn) | 8
O=C(NCc1ccccc1)C(c1cccc(F)c1)N(C(=O)Cn1nnc2ccccc21)C1CC2CCC1C2 (stereo not drawn) | 12
CC(C)(C)NC(=O)C(c1ccc(C(C)(C)C)cc1)N(C(=O)c1ccco1)c1ccc(C(C)(C)C)cc1 (stereo not drawn) | 26
CC(C)(C)NC(=O)C(c1c[nH]nn1)N(C(=O)c1ccco1)c1ccc(C(C)(C)C)cc1 (stereo not drawn) | 16
CC(C)c1ccc(N(C(=O)Cc2cccnc2)C(C(=O)NC(C)(C)C)c2ccsc2)cc1 (stereo not drawn) | 24
CC(C)(C)NC(=O)[C@H](c1cccnc1)N(C(=O)c1c[nH]cn1)c1ccc(C(C)(C)C)cc1 | 44
CC(C)C(=O)Nc1ccc(N(Cc2ccsc2)C(=O)Cn2nnc3ccccc32)cc1 | 92
CC(=O)Nc1ccc(N(C(=O)Cn2nnc3ccccc32)C(C(=O)NCc2ccccc2)c2cccc(F)c2)cc1 (stereo not drawn) | 32
CC(C)(C)NC(=O)C(c1cccnc1)N(C(=O)c1ccco1)c1ccc(-c2ccc(C#N)cc2)cc1 (stereo not drawn) | 14
CC(C)(C)NC(=O)C(c1cccnc1)N(C(=O)c1n[nH]c2ccccc12)C1CC1 (stereo not drawn) | 21
CC(C)(C)NC(=O)C(c1cccnc1)N(C(=O)c1ccco1)c1ccc(-c2cccc(C#N)c2)cc1 (stereo not drawn) | 16
CC(C)(C)NC(=O)C(c1cccnc1)N(C(=O)Cc1cccnc1)c1ccc(C(C)(C)C)cc1 (stereo not drawn) | 23
CC(C)(C)NC(=O)C(c1ccsc1)N(C(=O)Cn1nnc2ccccc21)c1ccc(NC(=O)C2CCCCC2)cc1 (stereo not drawn) | 21
CC(C)c1ccc(N(C(=O)c2ccc(C#N)cc2)C(C(=O)NC(C)(C)C)c2ccsc2)cc1 (stereo not drawn) | 21
CC(C)(C)NC(=O)C(c1cccnc1)N(C(=O)c1cccc(O)c1)c1ccc(C(C)(C)C)cc1 (stereo not drawn) | 10
CC(C)(C)NC(=O)C(c1cccnc1)N(C(=O)c1ccco1)c1ccc(C(C)(C)C)cc1 (stereo not drawn) | 11
CC(C)(C)NC(=O)C(c1cccnc1)N(C(=O)CC(F)(F)F)c1ccc(C(C)(C)C)cc1 (stereo not drawn) | 13
CC(C)(C)NC(=O)C(c1cccc(F)c1)N(C(=O)Cn1nnc2ccccc21)C1CC2CCC1C2 (stereo not drawn) | 15

Compound | inhibition [%]
CC(C)(C)NC(=O)C(c1ccsc1)N(C(=O)c1ccco1)c1ccc(F)cc1 (stereo not drawn) | 16
CC(C)(C)NC(=O)C(c1ccsc1)N(C(=O)c1ccc(C(F)(F)F)nc1)c1ccc(C(C)(C)C)cc1 (stereo not drawn) | 17
CC(C)(C)NC(=O)C(c1cccnc1)N(C(=O)Cc1ccccc1)c1ccc(C(C)(C)C)cc1 (stereo not drawn) | 20
CC(C)COc1ccc(N(C(=O)c2ccco2)C(C(=O)NC(C)(C)C)c2cccnc2)cc1 (stereo not drawn) | 25
CC(C)(C)NC(=O)C(c1cccnc1)N(C(=O)c1ncco1)c1ccc(C(C)(C)C)cc1 (stereo not drawn) | 30
O=C(Nc1ccc(N(C(=O)Cn2nnc3ccccc32)C(C(=O)NCc2ccccc2)c2cccc(F)c2)cc1)C1CCC1 (stereo not drawn) | 74
CC(C)(C)NC(=O)C(c1cccnc1)N(C(=O)c1ccc(Cl)o1)c1ccc(C(C)(C)C)cc1 (stereo not drawn) | 12
CC(C)c1ccc(N(C(=O)c2ccc(C#N)cc2)C(C(=O)NC(C)(C)C)c2cccnc2)cc1 (stereo not drawn) | 28
CC(C)(C)NC(=O)C(c1cncnc1)N(C(=O)c1c[nH]cn1)c1ccc(C(C)(C)C)cc1 (stereo not drawn) | 84
CC(C)(C)NC(=O)C(c1ccsc1)N(C(=O)c1ccco1)c1ccc(OC(F)F)cc1 (stereo not drawn) | 13
CC(C)c1ccc(N(C(=O)c2ccc(C(F)(F)F)nc2)C(C(=O)NC(C)(C)C)c2cccnc2)cc1 (stereo not drawn) | 18
CC(C)(C)NC(=O)C(c1ccsc1)N(C(=O)Cn1cnc2ccccc21)c1ccc(C(C)(C)C)cc1 (stereo not drawn) | 15
CC(C)(C)NC(=O)C(c1cccnc1)N(C(=O)c1ccco1)c1ccc(-c2ccccc2)cc1 (stereo not drawn) | 22
Cc1ccc(C(=O)N(c2ccc(C(C)(C)C)cc2)C(C(=O)NC(C)(C)C)c2cccnc2)o1 (stereo not drawn) | 26
CC(C)c1ccc(N(C(=O)Cc2cccc3ccccc23)C(C(=O)NC(C)(C)C)c2cccnc2)cc1 (stereo not drawn) | 26
CC(C)C(=O)Nc1ccc(N(Cc2ccsc2)C(=O)Cn2ccnn2)cc1 | 63
CC(C)(C)NC(=O)C(c1ccsc1)N(C(=O)c1cccc2c1CCCC2)C1CC1 (stereo not drawn) | 14
CC(C)(C)NC(=O)C(c1cccnc1)N(C(=O)c1ccco1)c1ccc(OC(F)F)cc1 (stereo not drawn) | 31
CCC(=O)Nc1ccc(N(C(=O)Cn2nnc3ccccc32)C(C(=O)NC(C)(C)C)c2ccsc2)cc1 (stereo not drawn) | 34
CC(C)(C)NC(=O)C(c1cccnc1)N(C(=O)c1c[nH]cn1)c1ccc(C(C)(C)C)cc1 (racemic) | 94
CC(C)c1ccc(N(C(=O)c2ccco2)C(C(=O)NC(C)(C)C)c2ccsc2)cc1 (stereo not drawn) | 18
